pIC50: −log10 of the molar value. Like-named read-outs stand apart in the source and are kept apart here. Starred links: 1 amine or outer side, 2 acyl side, 3 side chain; linkers in the order of their positions; H or OH if unused. Positions of bridges follow the written chain, without caps; N, C: chain ends. Non-standard residues stand in square brackets, D forms with d. Residues, ends and D or L forms follow the SMILES beside them. X9 = O=C([C@@H]1C[C@@H](Oc2nc3ccccc3cc2Br)CN1[*:1])[*:2]; Bta = N[C@@H](Cc1csc2ccccc12)C(=O)O; Hyp = O=C(O)[C@@H]1C[C@@H](O)CN1; NMeNle = CCCC[C@H](NC)C(=O)O; NMeA = CN[C@@H](C)C(=O)O; Orn = NCCC[C@H](N)C(=O)O; Dab = NCC[C@H](N)C(=O)O; Dap = NC[C@H](N)C(=O)O; Sar = CNCC(=O)O
Key:
Human PD-L1/PD-1 = target: T1, Human PD-L1/PD-1 (Homo sapiens, UniProt Q9NZQ7); test: HTRF PD-1-Ig/PD-L1-His binding assay (human PD-L1); conditions: cluster symbol; read-out: HTRF IC50 cluster
T1 construct: made in house; host or cells: HEK293T
Summary of the method: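 Steps: truncated PD-1-Ig and PD-L1-His fusions are incubated in dPBS containing 0.1% (w/v) BSA and 0.05% (v/v) Tween-20. Detection antibodies are then added (Eu cryptate anti-Ig at 1 nM final, APC anti-His at 20 nM final), and time-resolved FRET is measured.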

[1] = target: T2, LK35.2-hPD-L1 cells / PE-labeled PD-1-Ig (Homo sapiens, UniProt Q9NZQ7); test: LK35.2-hPD-L1 cell binding high-content screening assay; assay type: cell-based; conditions: cluster symbol, read-out: CBA IC50 cluster
T2 construct: expressed in transfected cells; host or cells: LK35.2 mouse B cell line
Summary of the method: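 Mouse LK35.2 B cells stably over-expressing human PD-L1, cultured overnight, treated with compound plus PE-labeled human PD-1-Ig (1 nM final) in RPMI/10% FCS for 1 h at 37 °C. After washing, bound fluorescence quantified by high-content imaging.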

[2] = cell binding assay, cell line not given
[3] = cell line of CBA not given (LK35.2-hPD-L1 or 293T-hPD-L1)

T2 sequence (Q9NZQ7 19-290): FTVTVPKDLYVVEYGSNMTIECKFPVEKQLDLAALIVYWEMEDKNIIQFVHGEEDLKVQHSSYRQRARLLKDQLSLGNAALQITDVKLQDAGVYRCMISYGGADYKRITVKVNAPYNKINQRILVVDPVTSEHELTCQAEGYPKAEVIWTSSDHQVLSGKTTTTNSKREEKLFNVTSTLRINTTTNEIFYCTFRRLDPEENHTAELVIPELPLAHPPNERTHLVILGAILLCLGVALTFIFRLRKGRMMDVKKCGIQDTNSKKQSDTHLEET
T1 sequence (Q9NZQ7 with tags, fused parts or gaps): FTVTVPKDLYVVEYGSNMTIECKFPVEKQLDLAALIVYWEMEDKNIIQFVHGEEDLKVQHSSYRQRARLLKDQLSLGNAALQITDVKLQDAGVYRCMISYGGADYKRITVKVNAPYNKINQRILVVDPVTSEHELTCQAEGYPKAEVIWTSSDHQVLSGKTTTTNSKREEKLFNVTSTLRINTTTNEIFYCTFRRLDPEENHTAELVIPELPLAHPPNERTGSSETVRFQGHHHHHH

SMILES	pIC50 (Human PD-L1/PD-1)	pIC50 [1, 2]	pIC50 [1, 3]
CCCC[C@H]1C(=O)N(C)CC(=O)N[C@@H](CC(=O)O)C(=O)N[C@@H](C(C)C)C(=O)N(C)[C@@H](Cc2ccccc2)C(=O)N[C@@H](Cc2ccc(O)cc2)C(=O)N(C)CC(=O)N[C@@H](Cc2c[nH]c3ccccc23)C(=O)N[C@@H](Cc2ccc(O)cc2)C(=O)N2CCC[C@H]2C(=O)N[C@H](C(=O)NCC(N)=O)CSCC(=O)N[C@@H](Cc2ccccc2)C(=O)N(C)[C@@H](Cc2ccccc2)C(=O)N1C [Example 3561] (HELM PEPTIDE1{[O=C(C[*:3])[*:2]].F.[meF].[CCCC[C@@H](C(=O)[*:2])N(C)[*:1]].[Sar].D.V.[meF].Y.[Sar].W.Y.P.C.G.[am]}$PEPTIDE1,PEPTIDE1,1:R3-14:R3$$$V2.0)	< 7.52	< 7.13	
CCCC[C@H]1C(=O)N(C)CC(=O)N[C@@H](CC(=O)O)C(=O)N[C@@H](CCC(=O)O)C(=O)N(C)[C@@H](Cc2ccccc2)C(=O)N[C@@H](Cc2ccc(O)cc2)C(=O)N(C)CC(=O)N[C@@H](Cc2c[nH]c3ccccc23)C(=O)N[C@@H](Cc2ccc(O)cc2)C(=O)N[C@@H](CC(C)C)C(=O)N[C@H](C(=O)NCC(N)=O)CSCC(=O)N[C@@H](Cc2ccccc2)C(=O)N(C)[C@@H](Cc2ccccc2)C(=O)N1C [Example 3150] (HELM PEPTIDE1{[O=C(C[*:3])[*:2]].F.[meF].[CCCC[C@@H](C(=O)[*:2])N(C)[*:1]].[Sar].D.E.[meF].Y.[Sar].W.Y.L.C.G.[am]}$PEPTIDE1,PEPTIDE1,1:R3-14:R3$$$V2.0)	< 7.52		< 7.13
CCCC[C@H]1C(=O)N(C)[C@@H](CCCC)C(=O)N[C@@H](CCCNC(=N)N)C(=O)N[C@H](C(=O)NCC(N)=O)CSCC(=O)N[C@@H](Cc2ccc(O)cc2)C(=O)N2CCC[C@@H]2C(=O)N[C@@H](CC(N)=O)C(=O)N2CCC[C@H]2C(=O)N[C@@H](Cc2cnc[nH]2)C(=O)N[C@@H](CC(C)C)C(=O)N2CCC[C@H]2C(=O)N[C@@H](Cc2c[nH]c3ccccc23)C(=O)N[C@@H](CO)C(=O)N[C@@H](Cc2c[nH]c3ccccc23)C(=O)N1C [Example 1137] ({CH2CO}-Y[dP]NPHLPWSW[NMeNle][NMeNle]RCG-NH2; thioether N-14)	< 7.52		< 7.13

More lines, now with the values ahead:

pIC50 (Human PD-L1/PD-1)	pIC50 [1, 2]	pIC50 [1, 3]	SMILES
8.17 to 9.41	7.14 to 8.32		CCCC[C@H]1C(=O)N(C)[C@@H](CCCC)C(=O)N[C@@H](CC(C)C)C(=O)N[C@H](C(=O)NCC(N)=O)CSCC(=O)N[C@@H](Cc2ccc(O)cc2)C(=O)N(C)[C@@H](C)C(=O)N[C@@H](CC(N)=O)C(=O)N2CCC[C@H]2C(=O)N[C@@H](CN)C(=O)N[C@@H](CC(C)C)C(=O)N2C[C@H](Oc3nc4ccccc4cc3Br)C[C@H]2C(=O)N[C@@H](Cc2c[nH]c3ccccc23)C(=O)N[C@@H](CCN)C(=O)N[C@@H](Cc2c[nH]c3ccccc23)C(=O)N1C [Example 6049] ({CH2CO}-Y[NMeA]NP[Dap]L[X9]W[Dab]W[NMeNle][NMeNle]LCG-NH2; thioether N-14)
7.52 to 8.17	7.14 to 8.32		CCCC[C@H]1C(=O)N(C)[C@@H](CCCC)C(=O)N[C@@H](CC(C)C)C(=O)N[C@H](C(=O)NCC(N)=O)CSCC(=O)N[C@@H](Cc2ccc(O)cc2)C(=O)N(C)[C@@H](C)C(=O)N[C@@H](CC(N)=O)C(=O)N(C)CC(=O)N[C@@H](Cc2c[nH]cn2)C(=O)N[C@@H](CCC(N)=O)C(=O)N2C[C@H](O)C[C@H]2C(=O)N[C@@H](Cc2c[nH]c3ccccc23)C(=O)N[C@@H](CO)C(=O)N[C@@H](Cc2c[nH]c3ccccc23)C(=O)N1C [Example 5084] ({CH2CO}-Y[NMeA]N[Sar]HQ[Hyp]WSW[NMeNle][NMeNle]LCG-NH2; thioether N-14)
8.17 to 9.41		8.33 to 9.80	CCCC[C@H]1C(=O)N(C)[C@@H](CCCC)C(=O)N[C@@H](CCCN)C(=O)N[C@H](C(=O)NCC(N)=O)CSCC(=O)N[C@@H](Cc2ccc(O)cc2)C(=O)N(C)[C@@H](C)C(=O)N[C@@H](CC(=O)O)C(=O)N2CCC[C@H]2C(=O)N[C@@H](CN)C(=O)N[C@@H](CCC(=O)O)C(=O)N2C[C@H](O)C[C@H]2C(=O)N[C@@H](Cc2c[nH]c3ccccc23)C(=O)N[C@@H](CCN)C(=O)N[C@@H](Cc2csc3ccccc23)C(=O)N1C [Example 1183] ({CH2CO}-Y[NMeA]DP[Dap]E[Hyp]W[Dab][Bta][NMeNle][NMeNle][Orn]CG-NH2; thioether N-14)
8.17 to 9.41		8.33 to 9.80	CCCC[C@H]1C(=O)N(C)[C@@H](CCCC)C(=O)N[C@@H](CCCNC(=N)N)C(=O)N[C@H](C(=O)NCC(N)=O)CSCC(=O)N[C@@H](Cc2ccc(O)cc2)C(=O)N(C)[C@@H](C)C(=O)N[C@@H](CC(N)=O)C(=O)N2CCC[C@H]2C(=O)N[C@@H](CN)C(=O)N[C@@H](CC(C)C)C(=O)N2CCC[C@H]2C(=O)N[C@@H](Cc2c[nH]c3ccccc23)C(=O)N[C@@H](CO)C(=O)N[C@@H](Cc2csc3ccccc23)C(=O)N1C [Example 1084] ({CH2CO}-Y[NMeA]NP[Dap]LPWS[Bta][NMeNle][NMeNle]RCG-NH2; thioether N-14)
